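Cells were grown in 96-well plates and exposed to each compound for 48 hours at five concentrations; endpoints were interpolated linearly between bracketing concentrations, or set to the highest concentration if not reached. GI50 = concentration required for 50% inhibition of growth. Definition used: TGI = concentration required for complete inhibition of growth.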

Test systems include A549 NSCLC; CAKI-1 renal; HCT-15 colon; M14 melanoma; RPMI-8226 leukemia; SF-295 CNS; SN12C renal; SNB-19 CNS; UO-31 renal.
Holding throughout (test): inhibition of tumour cell growth, NCI panel, 48 h

For the compound `Cc1nn(-c2ccccc2)c2nc(N3CCOCC3)nnc12`, the TGI in the experiment on A549 NSCLC, in the experiment on CAKI-1 renal, with HCT-15 colon, with M14 melanoma, in the experiment with RPMI-8226 leukemia and in the experiment on SF-295 CNS was above 100 µM in each case. In addition, the TGI with SN12C renal, in the experiment with SNB-19 CNS and in the experiment on UO-31 renal was above 100 µM each time.

For `N#Cc1nc(Nc2cccc3ccccc23)sc1N`, the TGI with A549 NSCLC is above 100 µM; with CAKI-1 renal it was above 100 µM; with HCT-15 colon, above 100 µM; with M14 melanoma, above 100 µM; in the experiment on RPMI-8226 leukemia, 72 µM; with SF-295 CNS, above 100 µM. The TGI was above 100 µM with SN12C renal, above 100 µM with SNB-19 CNS and 49 µM in the experiment on UO-31 renal.

For `CCOc1ccccc1C=C1c2ccccc2C(=O)c2ccccc21`, the TGI with A549 NSCLC was above 100 µM; with CAKI-1 renal it was 6.58 µM; with HCT-15 colon, above 100 µM; with M14 melanoma, 64.5 µM; in the experiment with RPMI-8226 leukemia it was 23.2 µM; with SF-295 CNS it was above 100 µM. In addition, the results for the TGI in the experiment on SN12C renal, in the experiment on SNB-19 CNS and in the experiment on UO-31 renal were above 100 µM, above 100 µM and 13.6 µM, respectively.

Take `COC(=O)c1cc2c(s1)C(=O)c1ccccc1-2`: the TGI in the experiment on A549 NSCLC, with CAKI-1 renal, with HCT-15 colon, in the experiment on M14 melanoma, in the experiment on SF-295 CNS and in the experiment on SN12C renal was above 100 µM each time. The TGI with SNB-19 CNS and with UO-31 renal was above 100 µM throughout.

As to `COc1cc2nc(-c3ccc(Cl)cc3)cc(OCCCN3CCCCC3)c2cc1OC`, the GI50 with A549 NSCLC was 1.9 µM; in the experiment on CAKI-1 renal it was 0.287 µM; with HCT-15 colon, 0.604 µM; in the experiment with M14 melanoma, 0.412 µM; in the experiment on SF-295 CNS it was 1.21 µM; with SN12C renal it was 0.946 µM. Moreover, the GI50 in the experiment with SNB-19 CNS was 2.98 µM. The TGI is above 100 µM in the experiment with A549 NSCLC; 2.54 µM in the experiment on CAKI-1 renal; above 100 µM with HCT-15 colon; 1.67 µM in the experiment on M14 melanoma; 2.81 µM in the experiment on SF-295 CNS; above 100 µM with SN12C renal. The TGI with SNB-19 CNS is above 100 µM.

Consider `Cc1cc([N+](=O)[O-])ccc1Nc1cccc(Cl)c1C`, for which the TGI is 40.2 µM with A549 NSCLC; 30.5 µM with CAKI-1 renal; 35 µM in the experiment with HCT-15 colon; 29.1 µM in the experiment on M14 melanoma; 34.6 µM with SF-295 CNS; 32.1 µM in the experiment on SN12C renal. Moreover, the TGI came to 42.9 µM in the experiment with SNB-19 CNS and 24.4 µM in the experiment on UO-31 renal.

`CC1(C)COC(c2cccnc2/C=N/O)=N1`: the TGI in the experiment with A549 NSCLC, in the experiment with CAKI-1 renal, in the experiment with HCT-15 colon, in the experiment with M14 melanoma, in the experiment with SF-295 CNS and in the experiment with SN12C renal was above 100 µM in each case. Also, the TGI in the experiment with SNB-19 CNS and in the experiment on UO-31 renal was above 100 µM throughout.

Consider `NNC(=S)N/N=C(\CC1OC(=O)c2ccccc21)c1ccccc1O` (stereo not given), for which the TGI with A549 NSCLC is above 100 µM; with CAKI-1 renal, above 100 µM; with HCT-15 colon, above 100 µM; in the experiment on M14 melanoma, above 100 µM; with SF-295 CNS it was 40.4 µM; with SN12C renal, above 100 µM. Further, the TGI with SNB-19 CNS and in the experiment on UO-31 renal was above 100 µM in each case.

As to `COC1(OC)CC2C(=O)N(Cc3ccccc3)C1C(S(=O)(=O)c1ccccc1)C2S(=O)(=O)c1ccccc1` (stereo not given), the TGI in the experiment on A549 NSCLC is 75 µM; with CAKI-1 renal, 26.9 µM; in the experiment on HCT-15 colon it was 14.8 µM; in the experiment with M14 melanoma, 28.5 µM; with RPMI-8226 leukemia, 45.5 µM; in the experiment on SF-295 CNS it was above 100 µM. Further, the TGI with SN12C renal is 25.4 µM; with SNB-19 CNS, above 100 µM; in the experiment on UO-31 renal it was 31.3 µM.

For the compound `CCC[CH2][Sn]1([CH2]CCC)[O]N=C(c2ccccc2)C(c2ccccc2)[O]1` (stereo not given), the GI50 in the experiment on A549 NSCLC is 10.5 µM; with CAKI-1 renal it was 0.97 µM; with HCT-15 colon, 1.46 µM; in the experiment with M14 melanoma it was 1.63 µM; with RPMI-8226 leukemia, 0.588 µM; in the experiment on SF-295 CNS, 1.73 µM. Besides, the GI50 in the experiment with SN12C renal is 1.77 µM; in the experiment with SNB-19 CNS, 2.14 µM; in the experiment on UO-31 renal, 1.68 µM. For the same compound, the TGI was found to be 22.3 µM in the experiment on A549 NSCLC; 2.4 µM in the experiment with CAKI-1 renal; 2.77 µM with HCT-15 colon; 3.09 µM with M14 melanoma; 4.38 µM in the experiment on RPMI-8226 leukemia; 3.41 µM in the experiment on SF-295 CNS. Besides, the TGI in the experiment on SN12C renal was determined as 3.18 µM; in the experiment with SNB-19 CNS, 5.04 µM; in the experiment with UO-31 renal, 3.46 µM.

Regarding `CN(C)c1ccc(C(C=C2c3ccccc3Sc3ccccc32)=C(C#N)C#N)cc1`, the TGI in the experiment on A549 NSCLC, in the experiment on CAKI-1 renal, with HCT-15 colon, with M14 melanoma, in the experiment on RPMI-8226 leukemia and with SF-295 CNS was above 100 µM each time. In addition, the TGI in the experiment with SN12C renal, in the experiment with SNB-19 CNS and with UO-31 renal was above 100 µM throughout.

Take `CN(C)/C=N/c1nc2c(ncn2C2OC(CO)C(O)C2O)c(=O)[nH]1` (stereo not given): the TGI in the experiment with A549 NSCLC, in the experiment on CAKI-1 renal, with HCT-15 colon, in the experiment on M14 melanoma, in the experiment on RPMI-8226 leukemia and in the experiment on SF-295 CNS was above 100 µM in each case. Moreover, the TGI in the experiment on SN12C renal, in the experiment with SNB-19 CNS and with UO-31 renal was above 100 µM throughout.

With `O=C(CCn1[nH]c(=O)c(Cl)c(Cl)c1=O)NO`, the TGI with A549 NSCLC, in the experiment on CAKI-1 renal, in the experiment on HCT-15 colon, with M14 melanoma, in the experiment on RPMI-8226 leukemia and in the experiment with SF-295 CNS was above 100 µM each time. Further, the TGI in the experiment with SN12C renal, in the experiment with SNB-19 CNS and with UO-31 renal was above 100 µM each time.

As to `COC(=O)C1=C(O)c2cc(OC)c(OC)cc2C(c2ccc(OC)c(OC)c2)C1` (stereo not given), the TGI in the experiment with A549 NSCLC, in the experiment on CAKI-1 renal, in the experiment with HCT-15 colon, with M14 melanoma, with RPMI-8226 leukemia and with SF-295 CNS was above 100 µM each time. Moreover, the TGI in the experiment with SN12C renal and with UO-31 renal was above 100 µM throughout.

The record behind these values is PubChem BioAssay (NCI).
